Laboratory results published in PubChem BioAssay AID248 (DTP/NCI, 2004).
“And” between values parts separate entries of the source, which are not always exact repeats. Equal entries are not always repeated. Inconclusive results and toxic doses are left out. No stated cut-off is given here; in the data, active means T/C of 150% or more; inactive means T/C below 125%.

Test system: L1210 leukemia ip in BDF1 mice, survival T/C
Experiment: NCI In Vivo Anticancer Drug Screen. Data for tumor model L1210 Leukemia (intraperitoneal) in B6D2F1 (BDF1) mice
Conditions: endpoint: mean survival time, higher = longer survival
In short: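 Survival endpoint. Drug-treated group vs vehicle group, expressed as T divided by C. Tumor passaged by transplantation.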

[1] = dose: 100.0 mg/kg/injection, schedule: Q01DX001 (ip), vehicle: saline
[2] = dose: 200.0 mg/kg/injection, schedule: Q01DX001 (ip), vehicle: saline
[3] = dose: 400.0 mg/kg/injection, schedule: Q01DX001 (ip), vehicle: saline
[4] = dose: 100.0 mg/kg/injection, schedule: Q04DX003 (ip), vehicle: saline with Tween-80
[5] = dose: 200.0 mg/kg/injection, schedule: Q04DX003 (ip), vehicle: saline with Tween-80
[6] = dose: 400.0 mg/kg/injection, schedule: Q04DX003 (ip), vehicle: saline with Tween-80
[7] = dose: 100.0 mg/kg/injection, schedule: Q04DX002 (ip), vehicle: saline with Tween-80
[8] = dose: 200.0 mg/kg/injection, schedule: Q04DX002 (ip), vehicle: saline with Tween-80
[9] = dose: 50.0 mg/kg/injection, schedule: Q01DX009 (ip), vehicle: Klucel (hydroxypropylcellulose) (HPC)
[10] = dose: 100.0 mg/kg/injection, schedule: Q01DX009 (ip), vehicle: Klucel (hydroxypropylcellulose) (HPC)
[11] = dose: 100.0 mg/kg/injection, schedule: Q04DX003 (ip), vehicle: Klucel (hydroxypropylcellulose) (HPC)
[12] = dose: 200.0 mg/kg/injection, schedule: Q01DX009 (ip), vehicle: Klucel (hydroxypropylcellulose) (HPC)
[13] = dose: 200.0 mg/kg/injection, schedule: Q04DX003 (ip), vehicle: Klucel (hydroxypropylcellulose) (HPC)
[14] = dose: 400.0 mg/kg/injection, schedule: Q04DX003 (ip), vehicle: Klucel (hydroxypropylcellulose) (HPC)
[15] = dose: 100.0 mg/kg/injection, schedule: Q04DX003 (ip), vehicle: saline
[16] = dose: 100.0 mg/kg/injection, schedule: Q01DX009 (ip), vehicle: saline with Tween-80
[17] = dose: 200.0 mg/kg/injection, schedule: Q01DX009 (ip), vehicle: saline with Tween-80
[18] = dose: 400.0 mg/kg/injection, schedule: Q01DX009 (ip), vehicle: saline with Tween-80

Measured: T/C

Cc1cc(C[P+](c2ccccc2)(c2ccccc2)c2ccccc2)c(C[P+](c2ccccc2)(c2ccccc2)c2ccccc2)cc1C
inactive: dose: 1.5 mg/kg/injection, schedule: Q04DX003 (ip), vehicle: saline 104 % of control | dose: 3.0 mg/kg/injection, schedule: Q01DX009 (ip), vehicle: saline 97 % of control | dose: 3.0 mg/kg/injection, schedule: Q04DX003 (ip), vehicle: saline 106 % of control | dose: 6.0 mg/kg/injection, schedule: Q01DX009 (ip), vehicle: saline 94 % of control | dose: 6.0 mg/kg/injection, schedule: Q04DX003 (ip), vehicle: saline 98 % of control

Oc1ccccc1C=Nc1ccc(Cc2ccc(N=Cc3ccccc3O)cc2)cc1
inactive: [1] 96 % of control | dose: 150.0 mg/kg/injection, schedule: Q04DX003 (ip), vehicle: other 104 % of control | [2] 90 % of control | dose: 300.0 mg/kg/injection, schedule: Q04DX003 (ip), vehicle: other 86 % of control | [3] 90 % of control

C=Cc1c(C)c(O)cc2c1CC[C@@H]1C(C)(C)[C@H](O)[C@H](O)C[C@@]21C
inactive: [4] 103 % of control | [5] 100 % of control | [6] 98 % of control

CC1(C)CSCC(C)(C)/C(=N/O)C1=O
inactive: dose: 50.0 mg/kg/injection, schedule: Q04DX002 (ip), vehicle: saline with Tween-80 101 % of control | [7] 112 % of control | [8] 101 % of control

Cc1cnc(NC#N)nc1-c1ccccc1O
inactive: dose: 100.0 mg/kg/injection, schedule: Q04DX002 (ip), vehicle: Klucel (hydroxypropylcellulose) (HPC) 95 % of control | dose: 200.0 mg/kg/injection, schedule: Q04DX002 (ip), vehicle: Klucel (hydroxypropylcellulose) (HPC) 98 % of control | dose: 400.0 mg/kg/injection, schedule: Q04DX002 (ip), vehicle: Klucel (hydroxypropylcellulose) (HPC) 95 % of control

CC(C)=CCCNC(=O)NS(=O)(=O)c1ccc(Cl)cc1
inactive: [9] 101 % of control | [10] 95 % of control | [11] 104 % of control | [12] 102 % of control | [13] 110 % of control | [14] 95 % of control

Cc1ccccc1-n1nnc2ccccc2c1=O
inactive: [1] 95 % of control | [15] 95 % of control | [2] 92 % of control | dose: 200.0 mg/kg/injection, schedule: Q04DX003 (ip), vehicle: saline 115 % of control | [3] 89 % of control | dose: 400.0 mg/kg/injection, schedule: Q04DX003 (ip), vehicle: saline 88 % of control

C[S+](C)CCS(=O)(=O)[O-]
inactive: dose: 100.0 mg/kg/injection, schedule: Q04DX002 (ip), vehicle: saline 99 % of control | dose: 200.0 mg/kg/injection, schedule: Q04DX002 (ip), vehicle: saline 96 % of control | dose: 400.0 mg/kg/injection, schedule: Q04DX002 (ip), vehicle: saline 96 % of control

CCOC(=O)c1nc(SCc2ccccc2)n(Cc2ccccc2)c1C(=O)OCC
inactive: dose: 100.0 mg/kg/injection, schedule: Q01DX001 (ip), vehicle: saline with Tween-80 109 % of control | [16] 104 % of control and 107 % of control | [7] 102 % of control and 108 % of control | [4] 91 % of control | dose: 200.0 mg/kg/injection, schedule: Q01DX001 (ip), vehicle: saline with Tween-80 101 % of control | [17] 102 % of control and 111 % of control | [8] 101 % of control and 87 % of control | [5] 107 % of control | dose: 400.0 mg/kg/injection, schedule: Q01DX001 (ip), vehicle: saline with Tween-80 95 % of control | [18] 101 % of control and 102 % of control | dose: 400.0 mg/kg/injection, schedule: Q04DX002 (ip), vehicle: saline with Tween-80 97 % of control and 104 % of control | [6] 101 % of control

C[Si](C)(C)c1c(F)c(F)c(F)c(F)c1F
inactive: [16] 102 % of control | [17] 94 % of control | [18] 97 % of control

O=C1NNC(=O)NN1
inactive: [9] 97 % of control | [10] 103 % of control | [11] 100 % of control and 101 % of control | [12] 105 % of control | [13] 95 % of control | [14] 94 % of control

O=c1oc(/C=C/c2ccccc2)nc2cc(Cl)ccc12
inactive: [16] 103 % of control | [17] 101 % of control | [18] 96 % of control

N#C/C(=C\c1ccncc1)c1cccc2ccccc12
inactive: [11] 114 % of control | [13] 96 % of control | [14] 97 % of control

CN(C)c1ccc(/C=N/N=C(N)N)cc1
inactive: dose: 15.0 mg/kg/injection, schedule: Q01DX Z (ip), vehicle: saline 89 % of control | dose: 30.0 mg/kg/injection, schedule: Q01DX Z (ip), vehicle: saline 92 % of control | dose: 30.0 mg/kg/injection, schedule: Q01DX Z (oral), vehicle: other 100 % of control | dose: 60.0 mg/kg/injection, schedule: Q01DX Z (ip), vehicle: saline 100 % of control | dose: 60.0 mg/kg/injection, schedule: Q01DX Z (oral), vehicle: other 97 % of control | dose: 120.0 mg/kg/injection, schedule: Q01DX Z (oral), vehicle: other 109 % of control

CC(C)(C)NC(=O)Oc1ccc(-c2ccccc2)cc1Cl
inactive: [10] 95 % of control | [12] 100 % of control | dose: 400.0 mg/kg/injection, schedule: Q01DX009 (ip), vehicle: Klucel (hydroxypropylcellulose) (HPC) 100 % of control

S=P(Oc1ccccc1)(N1CC1)N1CC1
inactive: dose: 25.0 mg/kg/injection, schedule: Q01DX009 (ip), vehicle: acetone 98 % of control | dose: 50.0 mg/kg/injection, schedule: Q01DX009 (ip), vehicle: acetone 98 % of control | dose: 50.0 mg/kg/injection, schedule: Q04DX003 (ip), vehicle: saline 100 % of control | [1] 87 % of control | dose: 100.0 mg/kg/injection, schedule: Q01DX009 (ip), vehicle: acetone 93 % of control | [15] 92 % of control | dose: 150.0 mg/kg/injection, schedule: Q01DX009 (ip), vehicle: saline 87 % of control | [2] 94 % of control | dose: 225.0 mg/kg/injection, schedule: Q01DX009 (ip), vehicle: saline 87 % of control

Cc1cc(C(=O)O)c(C)n1-c1ccccc1
inactive: dose: 75.0 mg/kg/injection, schedule: Q01DX009 (ip), vehicle: Klucel (hydroxypropylcellulose) (HPC) 100 % of control | dose: 150.0 mg/kg/injection, schedule: Q01DX009 (ip), vehicle: Klucel (hydroxypropylcellulose) (HPC) 95 % of control | dose: 300.0 mg/kg/injection, schedule: Q01DX009 (ip), vehicle: Klucel (hydroxypropylcellulose) (HPC) 92 % of control

CCCC(O)(CCC)C(=O)O
inactive: [1] 94 % of control | [2] 94 % of control

C=CC(=O)O (tested in a mixture with another compound)
inactive: dose: 100.0 mg/kg/injection, schedule: Q01DX Z (ip), vehicle: saline 91 % of control

CC(N)CCC(C)(C)O (configuration not stated)
inactive: dose: 50.0 mg/kg/injection, schedule: Q01DX009 (ip), vehicle: saline 93 % of control | dose: 100.0 mg/kg/injection, schedule: Q01DX009 (ip), vehicle: saline 90 % of control
